The results in this text go back to ChEMBL document CHEMBL1201862, “PubChem BioAssay data set” (2004).

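Five compound concentrations were applied to cells in 96-well plates for 48 hours; endpoints were derived by simple linear interpolation of the resulting dose-response curve. Abbreviation: GI50, concentration required for 50% inhibition of growth.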 Active and inactive are the calls of the source. Rule as the data show it: active = GI50 up to about 1.1 µM and inactive = higher.

Test systems include SF-268; SK-MEL-2; NCI-H23; T47D; MCF7; LOX IMVI; MDA-N; COLO 205; MOLT-4; MDA-MB-435; SW-620; OVCAR-3; IGROV-1; RXF 393; SK-MEL-28; K562; HT-29; HL-60; KM12; CCRF-CEM.
Holding throughout (assay): NCI anticancer screen, dose series, 48 h

As for `COP(=O)(OC)C(O)/C=C/c1ccco1` (stereo not drawn), the GI50 with SF-268, in the assay on SK-MEL-2, in the assay on NCI-H23, in the assay on T47D, in the assay with MCF7 and in the assay with LOX IMVI was > 100 µM (inactive) throughout. The GI50 with MDA-N, with COLO 205, in the assay on MOLT-4, in the assay with MDA-MB-435, in the assay on SW-620 and in the assay on OVCAR-3 was > 100 µM (inactive) each time. In addition, the GI50 in the assay on IGROV-1, in the assay with RXF 393, in the assay with SK-MEL-28, in the assay on K562, in the assay on HT-29 and with HL-60 was > 100 µM (inactive) in each case. Moreover, in the assay with KM12, the GI50 is > 100 µM (inactive).

Take `Nc1ccn(C2OC(C(OC3OC(CO)C(O)C(N)C3O)C(O)C(O)C(O)C(O)CO)C(N)C(O)C2O)c(=O)n1` (stereo not drawn): the GI50 with SF-268 was 11 µM (inactive); with SK-MEL-2, > 100 µM (inactive); with NCI-H23, > 100 µM (inactive); with T47D it was > 100 µM (inactive); in the assay with MCF7, > 100 µM (inactive); in the assay on LOX IMVI, 21.7 µM (inactive). The GI50 was > 100 µM (inactive) with MDA-N; > 100 µM (inactive) in the assay with COLO 205; > 100 µM (inactive) with MOLT-4; > 100 µM (inactive) with MDA-MB-435; > 100 µM (inactive) with SW-620; 22.4 µM (inactive) with OVCAR-3. The GI50 was 30.7 µM (inactive) with IGROV-1; > 100 µM (inactive) with SK-MEL-28; > 100 µM (inactive) with HT-29; > 100 µM (inactive) with HL-60; > 100 µM (inactive) in the assay with CCRF-CEM; 70 µM (inactive) with KM12.

As for `Cc1cc(=O)oc2cc(OCc3c(F)cccc3Cl)ccc12`, the GI50 was 21.4 µM (inactive) in the assay on SF-268; 4.55 µM (inactive) with SK-MEL-2; > 100 µM (inactive) in the assay with NCI-H23; 2.49 µM (inactive) in the assay with T47D; 4.6 µM (inactive) with MCF7; 11.5 µM (inactive) in the assay on LOX IMVI. In addition, the GI50 in the assay on MDA-N was 2.3 µM (inactive); in the assay on MDA-MB-435, 1.78 µM (inactive); with OVCAR-3, > 100 µM (inactive); with IGROV-1, 9.46 µM (inactive); in the assay on RXF 393, 7.23 µM (inactive); with SK-MEL-28 it was > 100 µM (inactive). Also, the figures for the GI50 in the assay with HL-60 and in the assay on KM12 were 3.76 µM (inactive) and 1.99 µM (inactive), respectively.

Turning to `O=C1c2ccccc2C(=O)c2c(NCCNC(=O)C3CCCN3)ccc(NCCNC(=O)C3CCCN3)c21` (stereo not drawn), the GI50 with SF-268 was 34.1 µM (inactive); with SK-MEL-2 it was > 100 µM (inactive); in the assay with NCI-H23, 52.8 µM (inactive); with T47D, 30 µM (inactive); in the assay with MCF7, 30.8 µM (inactive); in the assay with LOX IMVI, 0.0415 µM (active). Further, the GI50 in the assay with MDA-N was 46.5 µM (inactive); in the assay with COLO 205, 24.5 µM (inactive); in the assay on MOLT-4, 22.1 µM (inactive); in the assay on MDA-MB-435 it was 55.8 µM (inactive); with SW-620, 40.4 µM (inactive); in the assay with OVCAR-3 it was 69.8 µM (inactive). For the same compound, the GI50 in the assay with IGROV-1 is 62.7 µM (inactive); in the assay with SK-MEL-28, 41.7 µM (inactive); with K562 it was 19.2 µM (inactive); in the assay on HT-29 it was 47.4 µM (inactive); with HL-60, 31 µM (inactive); with CCRF-CEM it was 18.8 µM (inactive). Also, the GI50 in the assay with KM12 was 23.2 µM (inactive).

Take `O=C(/C=C/c1ccc(Cl)cc1)c1ccc(Cl)s1`: the GI50 in the assay with SF-268 was 72.1 µM (inactive); in the assay with NCI-H23 it was 38.9 µM (inactive); in the assay on T47D, 46 µM (inactive); in the assay on MCF7, 4.8 µM (inactive); in the assay on LOX IMVI it was 12.2 µM (inactive); with MDA-N, 28.4 µM (inactive). In addition, the GI50 was 70.8 µM (inactive) with COLO 205; 27.7 µM (inactive) in the assay on MOLT-4; > 10 µM (inactive) with MDA-MB-435; 22 µM (inactive) in the assay on SW-620; 58.7 µM (inactive) in the assay with OVCAR-3; 49.2 µM (inactive) with IGROV-1. The GI50 in the assay with RXF 393 is 23.2 µM (inactive); in the assay with SK-MEL-28, 50.1 µM (inactive); with K562, 30.3 µM (inactive); in the assay on HT-29 it was 42.3 µM (inactive); in the assay on HL-60, 24.3 µM (inactive); in the assay on CCRF-CEM, 27 µM (inactive). For the same compound, the GI50 in the assay on KM12 is 29.1 µM (inactive).

Regarding `O=C(CC(C(=O)c1ccsc1)c1ccccc1)c1cccs1` (stereo not drawn), the GI50 in the assay with SF-268 is > 100 µM (inactive); in the assay with NCI-H23 it was 22 µM (inactive); in the assay with T47D, 11.8 µM (inactive); with MCF7, 33 µM (inactive); in the assay with MDA-N it was 69.2 µM (inactive); in the assay on COLO 205, > 100 µM (inactive). The GI50 is 49.9 µM (inactive) with MOLT-4; 40.6 µM (inactive) in the assay with MDA-MB-435; > 100 µM (inactive) in the assay on SW-620; 96.8 µM (inactive) in the assay with OVCAR-3; > 100 µM (inactive) in the assay with IGROV-1; 59.3 µM (inactive) with RXF 393. The GI50 is > 100 µM (inactive) in the assay on SK-MEL-28; > 100 µM (inactive) in the assay with K562; 69.2 µM (inactive) in the assay on HT-29; 41.1 µM (inactive) in the assay with HL-60; 80.5 µM (inactive) in the assay on CCRF-CEM; 26.8 µM (inactive) with KM12.

For the compound `CCCCNC(=S)N/C=C1\C(=O)Oc2ccccc2C1=O`, the GI50 was 38.5 µM (inactive) in the assay with SK-MEL-2; 88.5 µM (inactive) in the assay with NCI-H23; 81.5 µM (inactive) in the assay with T47D; > 100 µM (inactive) in the assay on MCF7; > 100 µM (inactive) with LOX IMVI; 64 µM (inactive) in the assay on MDA-N. The GI50 with COLO 205 is > 100 µM (inactive); with MOLT-4 it was 43.3 µM (inactive); in the assay with MDA-MB-435 it was 61 µM (inactive); in the assay on SW-620, 41.7 µM (inactive); with OVCAR-3 it was > 100 µM (inactive); in the assay with IGROV-1, 35.4 µM (inactive). Moreover, the GI50 in the assay with SK-MEL-28 was 77.8 µM (inactive); in the assay with HT-29, > 100 µM (inactive); in the assay on HL-60, 10 µM (inactive); in the assay with KM12 it was > 100 µM (inactive).

Regarding `CCCc1nc(Cl)c(Cl)c(Cl)n1`, the GI50 in the assay on SF-268 was 11.9 µM (inactive); in the assay on NCI-H23 it was 18.7 µM (inactive); with T47D, 17.5 µM (inactive); in the assay on MCF7, 16.1 µM (inactive); in the assay with LOX IMVI, 3.82 µM (inactive); in the assay with MDA-N, 33.8 µM (inactive). In addition, the GI50 in the assay on COLO 205 was 25.4 µM (inactive); with MOLT-4, 12.4 µM (inactive); with MDA-MB-435, 20.1 µM (inactive); in the assay with SW-620 it was 14.8 µM (inactive); in the assay on OVCAR-3 it was 6.64 µM (inactive); with IGROV-1, 17.4 µM (inactive). The GI50 is 19.2 µM (inactive) in the assay with RXF 393; 56.5 µM (inactive) in the assay with SK-MEL-28; 9.53 µM (inactive) with K562; > 47.6 µM (inactive) in the assay with HT-29; 15.4 µM (inactive) in the assay with HL-60; 8.81 µM (inactive) with CCRF-CEM. Also, the GI50 with KM12 is 38.6 µM (inactive).

As for `C/C=C/C1OC(O)(C(C)C(O)[C@H](C)C2OC(=O)/C(OC)=C/C(C)=C/[C@@H](C)[C@@H](O)[C@@H](C)C(O)C(C)C/C(C)=C/C=C/C2OC)C[C@@H](OC2CC(O)C(OC(N)=O)C(C)O2)C1C` (stereo partly drawn), the GI50 in the assay with SF-268, in the assay on SK-MEL-2, with NCI-H23, with T47D, in the assay on MCF7 and in the assay with LOX IMVI was < 0.01 µM (active) throughout. The GI50 in the assay on MDA-N is < 0.01 µM (active); in the assay with COLO 205 it was < 0.01 µM (active); in the assay on MOLT-4 it was < 0.01 µM (active); with MDA-MB-435 it was < 0.01 µM (active); in the assay on SW-620 it was < 0.01 µM (active); with OVCAR-3, < 0.0182 µM (active). In addition, the GI50 in the assay with IGROV-1 is < 0.01 µM (active); in the assay on SK-MEL-28 it was 1.45 µM (inactive); with K562 it was < 0.01 µM (active); with HT-29 it was < 0.01 µM (active); in the assay on HL-60, < 0.01 µM (active); in the assay on CCRF-CEM it was < 0.01 µM (active). Moreover, the GI50 in the assay with KM12 was < 0.01 µM (active).

On to `CCN(CC)c1ccc(/C=C2\CCc3ccc([N+](=O)[O-])cc3C2=O)cc1`, for which the GI50 in the assay with SF-268 is 14.4 µM (inactive); with NCI-H23, 7.62 µM (inactive); with T47D, 4.55 µM (inactive); in the assay with MCF7, 0.535 µM (active); with LOX IMVI it was 0.409 µM (active); in the assay with MDA-N, 0.17 µM (active). Besides, the GI50 in the assay on COLO 205 was 4.01 µM (inactive); in the assay on MOLT-4 it was 0.488 µM (active); with MDA-MB-435 it was 0.169 µM (active); in the assay on SW-620, 0.297 µM (active); in the assay on OVCAR-3 it was 1.93 µM (inactive); in the assay with IGROV-1, 7.06 µM (inactive). Besides, the GI50 with RXF 393 is 2.99 µM (inactive); with SK-MEL-28 it was 3.46 µM (inactive); in the assay on K562 it was 0.0755 µM (active); with HT-29, 0.256 µM (active); in the assay on HL-60 it was 0.249 µM (active); in the assay with CCRF-CEM, 0.217 µM (active). Further, the GI50 in the assay with KM12 is 0.582 µM (active).

For the compound `COc1ccc2c(c1)CCC1=CC3(CCC12C)SCCS3` (stereo not drawn), the GI50 in the assay with SF-268 was 3.13 µM (inactive); in the assay on NCI-H23 it was 6.82 µM (inactive); in the assay on T47D, 6.03 µM (inactive); with MCF7, 3.48 µM (inactive); in the assay with LOX IMVI, 7.06 µM (inactive); in the assay with MDA-N it was 2.59 µM (inactive). Further, the GI50 is 4.73 µM (inactive) in the assay with COLO 205; 3.8 µM (inactive) with MOLT-4; 3.74 µM (inactive) in the assay on MDA-MB-435; 4.56 µM (inactive) in the assay on SW-620; 3.3 µM (inactive) in the assay on OVCAR-3; 6.19 µM (inactive) with IGROV-1. For the same compound, the GI50 is 5.24 µM (inactive) with SK-MEL-28; 3.72 µM (inactive) in the assay on K562; 3.68 µM (inactive) in the assay on HT-29; 2.81 µM (inactive) in the assay on HL-60; 3.97 µM (inactive) in the assay on CCRF-CEM; 4.27 µM (inactive) in the assay with KM12.
